# Columns and labels:
# Eg5 = molecular target: T1, Eg5 (Homo sapiens, UniProt P52732); details: cited from earlier work
# T1 sequence (P52732 1-1056): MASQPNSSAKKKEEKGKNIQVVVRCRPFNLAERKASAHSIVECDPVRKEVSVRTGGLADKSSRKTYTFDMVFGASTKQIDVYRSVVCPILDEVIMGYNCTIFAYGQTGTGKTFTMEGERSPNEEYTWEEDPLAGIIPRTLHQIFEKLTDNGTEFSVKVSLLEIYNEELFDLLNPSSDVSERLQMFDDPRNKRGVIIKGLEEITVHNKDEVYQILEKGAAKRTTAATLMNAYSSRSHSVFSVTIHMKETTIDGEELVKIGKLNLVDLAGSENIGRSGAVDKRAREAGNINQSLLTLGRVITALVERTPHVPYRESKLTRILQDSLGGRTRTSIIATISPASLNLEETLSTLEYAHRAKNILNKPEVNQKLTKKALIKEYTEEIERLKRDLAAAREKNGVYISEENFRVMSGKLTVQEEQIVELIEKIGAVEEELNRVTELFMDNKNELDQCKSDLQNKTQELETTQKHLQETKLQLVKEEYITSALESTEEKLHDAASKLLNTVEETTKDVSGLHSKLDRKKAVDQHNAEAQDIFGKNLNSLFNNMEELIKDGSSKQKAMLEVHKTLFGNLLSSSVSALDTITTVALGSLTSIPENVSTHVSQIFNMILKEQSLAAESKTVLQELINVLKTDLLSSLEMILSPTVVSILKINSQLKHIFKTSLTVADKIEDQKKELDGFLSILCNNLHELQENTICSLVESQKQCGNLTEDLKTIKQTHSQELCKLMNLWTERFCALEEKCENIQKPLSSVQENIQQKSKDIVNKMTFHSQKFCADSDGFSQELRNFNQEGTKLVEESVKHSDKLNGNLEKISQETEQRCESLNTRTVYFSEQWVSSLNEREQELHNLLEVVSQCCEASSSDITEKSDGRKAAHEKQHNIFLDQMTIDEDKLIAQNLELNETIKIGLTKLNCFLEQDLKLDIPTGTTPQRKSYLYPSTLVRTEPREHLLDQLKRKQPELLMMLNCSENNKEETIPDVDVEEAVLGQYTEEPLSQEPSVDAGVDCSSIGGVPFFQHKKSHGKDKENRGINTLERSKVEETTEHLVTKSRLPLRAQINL
# matched GSCs and NSTCs = assay: SubG1 (apoptotic) population by flow cytometry for propidium iodide; assay type: cell-based, human; details: 3 nM; four days; three xenograft patient specimens
# Method: The half maximal effective concentration of ispinesib for acutely dissociated and MACS sorted matched GSCs and NSTCs was determined by plating, in triplicate, 1,000 cells per well of a 96 well plate pre-coated with GelTrex in growth-factor free Neuralbasal media. The next day, cells were exposed to 2-fold increasing concentrations of ispinesib spanning from 0 to 32 nM. Viability was measured at 72 hours using CellTiter-Glo ATP-based assay (Promega, Madison, Wis.) read on a luminometer (Perkin-Elmer, Waltham, Mass.). For long-term viability assays, 500 cells per well were plated in triplicate into 96-well plates as above. The next day, cells were exposed to 3 nM ispinesib or vehicle (DMSO) and viability was measured daily for 5 days using CellTiter-Glo. Day 0 reading were taken immediately after addition of drug or vehicle. SubG1 for GSCs and NSTCs was determined by flow cytometry for propidium iodide and gated as the events below the 2N G1 peak of the resulting histogram. Analysis was done following treatment of 100,000 cells with vehicle or 3 nM ispinesib. Cells were fixed at Day 0 through Day 4 in 100% cold ethanol and simultaneously processed for flow analysis with 20,000 events analyzed per condition.
# GSCs = assay: Limiting dilution assay and sphere formation (self-renewal); assay type: cell-based, human; details: pretreatment 18 hours with 3 nM; scored ten days later
# Method: GSCs were isolated from subcutaneous flank xenografts of patient-derived specimens by magnetic sorting as described above and allowed to recover overnight. The next day cells were exposed to vehicle or 3 nM ispinesib for 18 hours. Cells were then washed and triturated into a single cell suspension. Cell sorting was performed using a FACS Aria II Cell Sorter (BD Biosciences, Franklin Lakes, N.J., USA) to plate the cells into 96 well plates at a final cell number per well of 1 (38 wells/plate), 5 (24 wells/plate), 10, 20, or 50 (all at 12 wells/plate). Tumorsphere formation was evaluated 10 days after sorting and wells were scored positive or negative for the presence of at least one tumorsphere. The estimated stem cell frequency was calculated using extreme limiting dilution analysis. Only live cells were selected for using Live/Dead dye blue (Life Technologies).
# 08-387 GSCs = assay: Transwell in vitro invasion assay; assay type: cell-based, human
# Method: 08-387 GSCs enriched in G1 (8 hours post final thymidine release) were pre-exposed to vehicle or ispinesib (200 to 0 nM at a two-fold dilution) for one hour prior to being seeded onto Matrigel coated FluoroBlok Cell Culture Inserts at 125,000 cells per insert (±vehicle or ispinesib, plated in triplicate) with Neurobasal media supplemented with 10% FBS in the lower reservoir (BD Falcon, Franklin Lakes, N.J.). After 8 hours, membranes were processed for analysis with nuclei stained with DAPI. Nuclei on the lower surface of the membrane within the central field were scored using the 20× objective on a Leica DMIRB inverted microscopes.
smiles,measurement,setting,value
"Cc1ccc(C(=O)N(CCCN)[C@@H](c2nc3cc(Cl)ccc3c(=O)n2Cc2ccccc2)C(C)C)cc1 [ispinesib, N-(3-amino-propyl)-n-[R-1-(3-benzyl-7-choloro-4-oxo-3,4-dihydroquinazolin-2-yl)-2-methyl-propyl]-4-methyl-benzamide methanesulfonate]",selectivity for Eg5 over other kinesins,Eg5,"40,000 times"
same,subG1 population (surrogate marker for apoptosis),matched GSCs and NSTCs,higher subG1 fraction over NSTCs
same,stem cell frequency (tumorsphere formation),GSCs,significantly compromised
same,fewer cells migrated per field compared to vehicle control,08-387 GSCs; 200 nM,approximately 6 fold
same,EC50,"08-387 GSCs; Homo sapiens, 8 h, read-out: EC50, Transwell migration",67.2 nM
same,Transwell migration,"08-387 GSCs; interphase-enriched cells, 8 hours",completely block

# Source: US20150352114A1, “MITOTIC KINESIN Eg5 INHIBITING ANTICANCER AGENTS” (THE CLEVELAND CLINIC FOUNDATION, priority 2014, published 2015)
